Reference: US6251893A, “Bicyclic piperidine and piperazine compounds having 5-HT6 receptor affinity” (NPS Allelix Corp., priority 1998, dated 2001)

Legend:
5-HT2A receptor = 5-HT2A receptor (Homo sapiens, UniProt P28223); test: Binding to 5-HT2A receptor (selectivity); parameters: dose or concentration left out as unconfirmed; settings: selectivity versus 5-HT6; read-out: percent inhibition for the 5-HT2A receptor
5HT2C receptor = molecular target: T1, 5HT2C receptor (Homo sapiens, UniProt P28335); test: Binding to 5HT2C receptor (selectivity); settings: selectivity versus 5-HT6; read-out: percent inhibition for the 5HT2C receptor
T1 sequence (P28335 33-458): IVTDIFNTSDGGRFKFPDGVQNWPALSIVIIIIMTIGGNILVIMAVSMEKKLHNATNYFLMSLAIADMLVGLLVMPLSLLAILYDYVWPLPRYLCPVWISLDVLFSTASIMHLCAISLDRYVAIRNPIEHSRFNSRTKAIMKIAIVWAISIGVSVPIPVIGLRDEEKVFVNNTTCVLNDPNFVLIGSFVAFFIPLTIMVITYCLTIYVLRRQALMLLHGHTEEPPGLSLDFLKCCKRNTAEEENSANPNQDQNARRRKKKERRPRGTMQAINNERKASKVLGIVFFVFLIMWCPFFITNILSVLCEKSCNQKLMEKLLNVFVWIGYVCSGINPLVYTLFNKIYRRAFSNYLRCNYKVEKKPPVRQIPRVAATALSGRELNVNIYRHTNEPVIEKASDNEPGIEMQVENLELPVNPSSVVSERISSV

5-HT7 receptor = 5-HT7 receptor (Homo sapiens, UniProt P34969); test: Binding to 5-HT7 receptor (selectivity); parameters: dose or concentration left out as unconfirmed; settings: selectivity versus 5-HT6; read-out: percent inhibition for the 5-HT7 receptor
human 5HT6 receptor = human 5HT6 receptor (Homo sapiens, UniProt P50406); test: Binding affinity for the 5-HT6 receptor (3H-LSD displacement); parameters: expressed in transfected cells; settings: 100 nM test compound; 3H-LSD (2 nM); 60 minute incubation at 37° C; read-out: percent inhibition of radioligand binding for the 5-HT6 receptor
Method: Binding Affinity for the 5-HT6 Receptor
The assay protocol generally entailed the incubation of membranes prepared from cells expressing the 5-HT6 receptor with ^3 H-LSD (2 nM). Increasing levels of the test compound were incubated with the radioligand and the membrane homogenates prepared from the recombinant cells. After a 60 minute incubation at 37° C., the incubation was terminated by vacuum filtration. The filters were washed with buffer and the filters were counted for radioactivity using liquid scintillation spectrometry. […] Concentrations ranging from 10^-11 M to 10^-5 M of the test compound were evaluated. […] Affinity for the 5-HT6 receptor is expressed as the amount (in percent) of binding of the radioligand that is inhibited in the presence of 100 nM of test compound. A greater percent inhibition indicates greater affinity for the 5-HT6 receptor.

Chain of 5-HT7 receptor (P34969 whole entry): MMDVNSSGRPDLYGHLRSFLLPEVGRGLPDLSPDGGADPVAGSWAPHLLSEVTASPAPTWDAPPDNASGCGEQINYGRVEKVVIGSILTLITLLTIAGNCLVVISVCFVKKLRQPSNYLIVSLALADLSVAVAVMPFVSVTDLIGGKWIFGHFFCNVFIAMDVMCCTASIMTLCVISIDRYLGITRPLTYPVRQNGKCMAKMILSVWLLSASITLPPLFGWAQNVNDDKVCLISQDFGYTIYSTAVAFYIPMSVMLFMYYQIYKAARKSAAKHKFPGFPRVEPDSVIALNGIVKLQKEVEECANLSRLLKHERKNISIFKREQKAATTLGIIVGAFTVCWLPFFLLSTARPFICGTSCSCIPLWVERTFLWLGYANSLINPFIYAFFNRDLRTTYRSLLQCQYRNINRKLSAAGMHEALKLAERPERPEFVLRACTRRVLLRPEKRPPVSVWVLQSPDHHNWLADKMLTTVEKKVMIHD
Chain of human 5HT6 receptor (P50406 whole entry): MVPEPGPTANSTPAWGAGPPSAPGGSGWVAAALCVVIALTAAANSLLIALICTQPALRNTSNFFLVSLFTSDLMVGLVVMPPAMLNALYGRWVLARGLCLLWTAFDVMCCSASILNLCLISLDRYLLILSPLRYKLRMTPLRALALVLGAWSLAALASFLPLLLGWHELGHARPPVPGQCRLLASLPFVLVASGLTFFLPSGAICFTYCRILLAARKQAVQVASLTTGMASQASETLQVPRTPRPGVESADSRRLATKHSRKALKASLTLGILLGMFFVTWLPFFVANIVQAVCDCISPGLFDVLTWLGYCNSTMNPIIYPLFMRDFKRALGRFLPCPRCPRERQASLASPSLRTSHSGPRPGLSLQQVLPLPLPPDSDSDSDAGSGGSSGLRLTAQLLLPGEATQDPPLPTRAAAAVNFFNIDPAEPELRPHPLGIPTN
Chain of 5-HT2A receptor (P28223 whole entry): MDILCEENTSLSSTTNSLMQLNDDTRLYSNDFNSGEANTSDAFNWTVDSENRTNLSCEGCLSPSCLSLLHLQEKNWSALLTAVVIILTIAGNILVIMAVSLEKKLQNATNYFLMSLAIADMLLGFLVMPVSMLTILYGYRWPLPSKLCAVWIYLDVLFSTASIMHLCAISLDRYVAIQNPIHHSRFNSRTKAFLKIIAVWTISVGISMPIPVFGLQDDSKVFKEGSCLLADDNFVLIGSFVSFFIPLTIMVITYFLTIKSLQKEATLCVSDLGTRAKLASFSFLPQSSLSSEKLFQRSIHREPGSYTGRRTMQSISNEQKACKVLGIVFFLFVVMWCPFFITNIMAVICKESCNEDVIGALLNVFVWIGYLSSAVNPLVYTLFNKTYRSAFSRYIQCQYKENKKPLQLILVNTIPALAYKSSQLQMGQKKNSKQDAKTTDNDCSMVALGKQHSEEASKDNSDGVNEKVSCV

| SMILES | inhibition (5-HT2A receptor) [%] | inhibition at 0.1 µM (5HT2C receptor) [%] | inhibition (5-HT7 receptor) [%] | inhibition at 0.1 µM (human 5HT6 receptor) [%] |
| --- | --- | --- | --- | --- |
| O=S(=O)(c1cccc2ccccc12)n1cc(C2=CCN3CCCC3C2)c2cc(F)cc(F)c21 (racemic) [Example 6kk, 5,7-Difluoro-3-[(8a-R,S)-1,2,3,5,8,8a-hexahydro-7-indolizinyl]-1-naphthalenesulfonylindole] | < 20 | < 20 | < 20 | > 80 |
| O=S(=O)(c1ccc2ccccc2c1)n1cc(N2CCN3CCCCC3C2)c2ccccc21 (racemic) [Example 6l, 3-[(6-R,S)-1,4-Diaza[4.4. 0]bicyclodecan-4-yl]-1-(2-naphthalenesulfonyl)indole] | < 20 | < 20 | < 20 | > 80 |
| O=S(=O)(c1ccc2ccccc2c1)n1cc(C2=CCN3CCCC3C2)c2cc(F)cc(F)c21 (racemic) [Example 6ll, 5,7-Difluoro-3-[(8a-R,S)-1,2,3,5,8,8a-hexahydro-7-indolizinyl]-2-naphthalenesulfonylindole] | < 20 | < 20 | < 20 | > 80 |
| O=S(=O)(c1cccc2ccccc12)n1cc(N2CCN3CCCCC3C2)c2ccccc21 (racemic) [Example 6m, 3-[(6-R,S)-1,4-Diaza[4.4. 0]bicyclodecan-4-yl]-1-(1-naphthalenesulfonyl)indole] | < 20 | < 20 | < 20 | > 80 |
| COc1ccc2c(c1)c(C1=CCN3CCCC3C1)cn2S(=O)(=O)c1ccccc1 (racemic) [Example 6mm, 5-Methoxy-3-[(8a-R,S)-1,2,3,5,8,8a-hexahydro-7-indolizinyl]-1-phenylsulfonylindole] | < 20 | < 20 | < 20 | > 80 |
| O=S(=O)(c1ccc(Br)cc1)n1cc(N2CCN3CCCCC3C2)c2ccccc21 (racemic) [Example 6n, 1-(4-Bromophenylsulfonyl)-3-[(6-R,S)-1,4-diaza[4.4. 0]bicyclodecan-4-yl]indole] | < 20 | < 20 | < 20 | > 80 |
| COc1ccc2c(c1)c(C1=CCN3CCCC3C1)cn2S(=O)(=O)c1cccc2ccccc12 (racemic) [Example 6nn, 5-Methoxy-3-[(8a-R,S)-1,2,3,5,8,8a-hexahydro-7-indolizinyl]-1-naphthalenesulfonylindole] | < 20 | < 20 | < 20 | > 80 |
| COc1ccc2c(c1)c(C1=CCN3CCCC3C1)cn2S(=O)(=O)c1ccc2ccccc2c1 (racemic) [Example 6oo, 5-Methoxy-3-[(8a-R,S)-1,2,3,5,8,8a-hexahydro-7-indolizinyl]-2-naphthalenesulfonylindole] | < 20 | < 20 | < 20 | > 80 |
| O=S(=O)(c1ccc(Cl)cc1)n1cc(N2CCN3CCCCC3C2)c2ccccc21 (racemic) [Example 6p, 1-(4-Chlorophenylsulfonyl)-3-[(6-R,S)-1,4-diaza[4.4. 0]bicyclodecan-4-yl]indole] | < 20 | < 20 | < 20 | > 80 |
| Cc1ccc2c(c1)c(C1=CCN3CCCC3C1)cn2S(=O)(=O)c1ccccc1 (racemic) [Example 6pp, 5-Methyl-3-[(8a-R,S)-1,2,3,5,8,8a-hexahydro-7-indolizinyl]-1-phenylsulfonylindole] | < 20 | < 20 | < 20 | > 80 |
| Cc1ccc2c(c1)c(C1=CCN3CCCC3C1)cn2S(=O)(=O)c1cccc2ccccc12 (racemic) [Example 6qq, 5-Methyl-3-[(8a-R,S)-1,2,3,5,8,8a-hexahydro-7-indolizinyl]-1-naphthalenesulfonylindole] | < 20 | < 20 | < 20 | > 80 |
| Cc1ccc2c(c1)c(C1=CCN3CCCC3C1)cn2S(=O)(=O)c1ccc2ccccc2c1 (racemic) [Example 6rr, 5-Methyl-3-[(8a-R,S)-1,2,3,5,8,8a-hexahydro-7-indolizinyl]-2-naphthalenesulfonylindole] | < 20 | < 20 | < 20 | > 80 |
| Cc1cccc2c(C3=CCN4CCCC4C3)cn(S(=O)(=O)c3ccccc3)c12 (racemic) [Example 6ss, 7-Methyl-3-[(8a-R,S)-1,2,3,5,8,8a-hexahydro-7-indolizinyl]-1-phenylsulfonylindole] | < 20 | < 20 | < 20 | > 80 |
| Cc1cccc2c(C3=CCN4CCCC4C3)cn(S(=O)(=O)c3cccc4ccccc34)c12 (racemic) [Example 6tt, 7-Methyl-3-[(8a-R,S)-1,2,3,5,8,8a-hexahydro-7-indolizinyl]-1-naphthalenesulfonylindole] | < 20 | < 20 | < 20 | > 80 |
| O=S(=O)(c1ccccc1)n1cc(N2CCN3CCCCC3C2)c2ccccc21 (racemic) [Example 6u, 3-[(6-R,S)-1,4-Diaza[4.4.0]bicyclodecan-4-yl]-1-(phenylsulfonyl)indole] | < 20 | < 20 | < 20 | > 80 |
| O=S(=O)(c1ccc2ccccc2c1)n1cc(C2=CCN3CCCC3C2)c2cc(F)ccc21 (racemic) [Example 6z, 5-Fluoro-3-[(8a-R,S)-1,2,3,5,8,8a-hexahydro-7-indolizinyl]-1-(2-naphthalenesulfonyl)indole] | < 20 | < 20 | < 20 | > 80 |
